From patent US10633383B2, “Compounds for the treatment, alleviation or prevention of disorders associated with Tau aggregates” (AC Immune SA, priority 2018, dated 2020)

Biological target: T1, Tau K18 fragment (amino acids 244 to 372 of human Tau441) aggregates (Homo sapiens, UniProt P10636)
T1 construct: encompassing amino acids 244 to 372 of the longest isoform (2N4R) of human Tau441; host or cells: bacteria
Test: Tau K18 disaggregation assay by ThT
Type: biochemical
Conditions: 2 μM K18 aggregates, 30 minutes at RT, ThT fluorescence
Description: Tau K18 Disaggregation Assay by ThT
Compounds were dissolved in anhydrous dimethyl sulfoxide (DMSO, Sigma-Aldrich) to reach a concentration of 10 mM. K18 aggregates and serial dilutions of compounds were mixed together in PBS (volume 50 μL) to a final concentration of 2 μM of K18 aggregates and from 160 to 0.04 μM of compounds. The mixture was incubated for 30 minutes at room temperature (RT), then 40 μL of this mixture were transferred into a black 384-well plate assay (Perkin-Elmer) and mixed with 10 μL of 100 μM ThT in 250 mM glycine (both from Sigma-Aldrich) in PBS. Fluorescence (relative fluorescence units; RFU) was measured in monoplicate or duplicate on a Tecan reader (excitation: 440 nm; emission: 485 nm). Percentage of K18 disaggregation was then calculated and half maximal effective concentration (EC50) was determined using GraphPad Prism version 5 (GraphPad Software) assuming a one-binding site fitting model.

T1 sequence (P10636 561-689): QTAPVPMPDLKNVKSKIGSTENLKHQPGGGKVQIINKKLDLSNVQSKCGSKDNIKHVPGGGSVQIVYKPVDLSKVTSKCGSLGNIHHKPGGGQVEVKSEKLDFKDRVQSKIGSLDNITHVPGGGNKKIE

Row | EC50 | Structure (SMILES)
1 | < 10 µM | Cn1c2c(c3cc(F)ccc31)CN(c1ccc3nc(N4CCOCC4)sc3c1)CC2 [Example 1]
2 | < 10 µM | CN(C)c1nc2ccc(N3CCc4[nH]c5ccc(F)cc5c4C3)cc2s1 [Example 7]
3 | < 10 µM | CN(C)c1nc2cc(N3CCc4[nH]c5ccc(F)cc5c4C3)ccc2o1 [Example 10]
4 | < 10 µM | CN(C)c1nc2cc(N3CCc4[nH]c5ccc(F)cc5c4C3)ccc2s1 [Example 11]
5 | 25 to 50 µM | Cn1c2c(c3cc(F)ccc31)CN(c1ccc3nc(N4CCOCC4)oc3c1)CC2 [Example 15]
6 | < 10 µM | CN(C)c1nc2cc(N3CCc4c(c5cc(F)cnc5n4C)C3)ccc2o1 [Example 38]
7 | < 10 µM | CNc1nc2ccc(N3CCc4c(c5cc(OC)ccc5n4C)C3)cc2s1 [Example 41]
8 | < 10 µM | Fc1cccc2[nH]c3c(c12)CN(c1ccc2oc(N4CCOCC4)nc2c1)CC3 [Example 53]
9 | < 10 µM | Fc1ccc2[nH]c3c(c2c1)CN(c1cnc2nc(N4CCOCC4)sc2c1)CC3 [Example 71]
10 | < 10 µM | Fc1ccc2[nH]c3c(c2c1)CN(c1ccc2nc(N4CCOCC4)sc2n1)CC3 [Example 72]
11 | < 10 µM | Fc1ccc2c3c([nH]c2c1)CCN(c1cnc2nc(N4CCOCC4)sc2c1)C3 [Example 73]
12 | < 10 µM | Fc1ccc2[nH]c3c(c2c1)CN(c1ccc(N2CCOCC2)cn1)CC3 [Example 76]
13 | < 10 µM | Cn1c2c(c3cc(F)ccc31)CN(c1ccc(N3CCOCC3)cn1)CC2 [Example 77]
14 | < 10 µM | Fc1ccc2c3c([nH]c2c1)CCN(c1ccc(N2CCOCC2)cn1)C3 [Example 78]
15 | < 10 µM | Fc1ccc2c3c([nH]c2c1)CCN(c1ccc(N2CCOCC2)nc1)C3 [Example 79]
16 | < 10 µM | Cn1c2c(c3ccc(F)cc31)CN(c1ccc(N3CCOCC3)cn1)CC2 [Example 80]
17 | 10 to 25 µM | Fc1cccc2[nH]c3c(c12)CN(c1ccc(N2CCOCC2)nc1)CC3 [Example 81]
18 | 10 to 25 µM | Fc1cccc2[nH]c3c(c12)CN(c1ccc(N2CCOCC2)cn1)CC3 [Example 82]
19 | < 10 µM | Cn1c2c(c3c(F)cccc31)CN(c1ccc(N3CCOCC3)nc1)CC2 [Example 83]
20 | < 10 µM | Cn1c2c(c3ccccc31)CN(c1ccc(N3CCOCC3)cn1)CC2 [Example 84]
21 | < 10 µM | c1ccc2c3c([nH]c2c1)CCN(c1ccc(N2CCOCC2)cn1)C3 [Example 85]
22 | 10 to 25 µM | c1ccc2c3c([nH]c2c1)CCN(c1ccc(N2CCOCC2)nc1)C3 [Example 86]
23 | < 10 µM | Cn1c2c(c3ccc(F)cc31)CN(c1ccc(N3CCOCC3)nc1)CC2 [Example 87]
24 | < 10 µM | Fc1ccc2c3c([nH]c2c1)CCN(c1ccc2nc(N4CCOCC4)sc2n1)C3 [Example 88]
25 | < 10 µM | Fc1ccc2c3c([nH]c2c1)CCN(c1cc2sc(N4CCOCC4)nc2cn1)C3 [Example 89, 4-(6-(7-fluoro-1,3,4,5-tetrahydro-2H-pyrido[4,3-b]indol-2-yl)thiazolo[4,5-c]pyridin-2-yl)morpholine]
26 | < 10 µM | Fc1ccc2[nH]c3c(c2c1)CN(c1cc2sc(N4CCOCC4)nc2cn1)CC3 [Example 90]
27 | 10 to 25 µM | Fc1ccc2c3c([nH]c2c1)CCN(c1ccc2ccc(N4CCOCC4)nc2c1)C3 [Example 91]

Row | EC50 | Structure (SMILES)
28 | < 10 µM | Fc1ccc2c3c([nH]c2c1)CCN(c1ccc2nc(N4CCOCC4)ccc2c1)C3 [Example 92]
29 | < 10 µM | COc1ccc2nc(N3CCc4c(c5cc(F)ccc5n4C)C3)ccc2c1 [Example 93]
30 | < 10 µM | COc1cncc(N2CCc3c(c4cc(F)ccc4n3C)C2)c1 [Example 94]
31 | < 10 µM | COc1cc(N2CCc3c(c4cc(F)ccc4n3C)C2)ccn1 [Example 95]
32 | < 10 µM | Cn1c2c(c3cc(F)ccc31)CN(c1ccc(N3CCOCC3)cc1)CC2 [Example 96]
33 | 10 to 25 µM | COc1ccc2c(c1)c1c(n2C)CCN(c2ccc3oc(N(C)C)nc3c2)C1 [Example 96a]
34 | < 10 µM | c1cnc2oc3c(c2c1)CN(c1ccc2oc(N4CCOCC4)nc2c1)CC3 [Example 96b]
35 | < 10 µM | Cn1c2c(c3cc(F)ccc31)CN(c1cncc(C(F)(F)F)c1)CC2 [Example 96d]
36 | 25 to 50 µM | Cn1c2c(c3cc(F)ccc31)CN(c1ccc(F)cn1)CC2 [Example 96e]
37 | < 10 µM | Fc1ccc2[nH]c3c(c2c1)CN(c1ccc(N2CCOCC2)nn1)CC3 [Example 97]
38 | < 10 µM | CNc1nc2ccc(N3CCc4[nH]c5ccc(F)cc5c4C3)cc2o1 [Example 98]
39 | 25 to 50 µM | Fc1ccc2[nH]c3c(c2c1)CN(c1ccnc(N2CCOCC2)n1)CC3 [Example 99]
40 | 25 to 50 µM | Fc1ccc2[nH]c3c(c2c1)CN(c1cnc(N2CCOCC2)cn1)CC3 [Example 100]
41 | < 10 µM | Fc1ccc2c3c([nH]c2c1)CCN(c1ccc(N2CCOCC2)nn1)C3 [Example 101]
42 | 25 to 50 µM | Fc1ccc2c3c([nH]c2c1)CCN(c1ccc(N2CC4CCC(C2)O4)nn1)C3 [Example 102]
43 | < 10 µM | Fc1ccc2c3c([nH]c2c1)CCN(c1cnc(N2CCOCC2)cn1)C3 [Example 103]
44 | < 10 µM | Fc1ccc2[nH]c3c(c2c1)CN(c1ncc2nc(N4CCOCC4)sc2n1)CC3 [Example 104]
45 | < 10 µM | Fc1ccc2[nH]c3c(c2c1)CN(c1ccc2nc(N4CCOCC4)ccc2n1)CC3 [Example 105a]
46 | < 10 µM | Fc1ccc2c3c([nH]c2c1)CCN(c1ccc2nc(N4CCOCC4)ccc2n1)C3 [Example 105b]
47 | < 10 µM | Fc1ccc2c3c([nH]c2c1)CCN(c1ncc2nc(N4CCOCC4)sc2n1)C3 [Example 105f]
48 | < 10 µM | Fc1ccc2c3c([nH]c2c1)CCN(c1nc2cc(N4CCOCC4)ccc2o1)C3 [Example 106]
49 | < 10 µM | Fc1ccc2c3c([nH]c2c1)CCN(c1nc2cc(N4CCOCC4)ccc2s1)C3 [Example 107]
50 | < 10 µM | Fc1ccc2c3c([nH]c2c1)CCN(c1nc2ccc(N4CCOCC4)cc2s1)C3 [Example 108]
51 | < 10 µM | Fc1ccc2c3c([nH]c2c1)CCN(c1nc2ccc(N4CCOCC4)cc2o1)C3 [Example 109]
52 | < 10 µM | Fc1ccc2c3c([nH]c2c1)CCN(c1cc2ccc(N4CCOCC4)nc2cn1)C3 [Example 110]
53 | < 10 µM | Fc1cccc2c3c([nH]c12)CCN(c1ccc2oc(N4CCOCC4)nc2c1)C3 [Example 111]
54 | < 10 µM | Fc1ccc2[nH]c3c(c2c1)CN(c1cnc2nc(N4CCOCC4)ccc2c1)CC3 [Example 112]

Row | EC50 | Structure (SMILES)
55 | < 10 µM | Fc1ccc2[nH]c3c(c2c1)CN(c1ccc2nc(N4CCOCC4)ccc2c1)CC3 [Example 113]
56 | 10 to 25 µM | Fc1ccc2[nH]c3c(c2c1)CN(c1ccc2ccc(N4CCOCC4)nc2c1)CC3 [Example 114]
57 | < 10 µM | Fc1ccc2[nH]c3c(c2c1)CN(c1ccc(N2CCOCC2)cc1)CC3 [Example 115]
58 | < 10 µM | COCCN(C)c1nc2cc(N3CCc4[nH]c5cc(F)ccc5c4C3)ccc2o1 [Example 116]
59 | < 10 µM | Fc1ccc2c3c([nH]c2c1)CCN(c1ccc(N2CCOCC2)cc1)C3 [Example 117]
60 | 10 to 25 µM | COCCNc1nc2cc(N3CCc4[nH]c5cc(F)ccc5c4C3)ccc2o1 [Example 118]
61 | < 10 µM | Cn1c2c(c3ccccc31)CN(c1ccc(N3CCOCC3)nc1)CC2 [Example 119]
62 | < 10 µM | Cn1c2c(c3cccc(F)c31)CN(c1ccc3oc(N4CCOCC4)nc3c1)CC2 [Example 120]
63 | < 10 µM | N#Cc1ccc(N2CCc3[nH]c4cc(F)ccc4c3C2)nc1 [Example 121]
64 | < 10 µM | Fc1ccc2c3c([nH]c2c1)CCN(c1ccc2cc(N4CCOCC4)ncc2c1)C3 [Example 122]
65 | < 10 µM | N#Cc1ccc(N2CCc3[nH]c4cc(F)ccc4c3C2)cn1 [Example 123]
66 | < 10 µM | Fc1ccc2[nH]c3c(c2c1)CN(c1cccc2oc(N4CCOCC4)nc12)CC3 [Example 124]
67 | < 10 µM | Fc1ccc2c3c([nH]c2c1)CCN(c1ccc2oc(N4CCOC5(CCC5)C4)nc2c1)C3 [Example 125]
68 | < 10 µM | C[C@@H]1COCCN1c1nc2cc(N3CCc4[nH]c5cc(F)ccc5c4C3)ccc2o1 [Example 126]
69 | < 10 µM | COc1cccc2c3c([nH]c12)CCN(c1ccc2oc(N4CCOCC4)nc2c1)C3 [Example 127]
70 | < 10 µM | C[C@H]1CN(c2nc3cc(N4CCc5[nH]c6cc(F)ccc6c5C4)ccc3o2)CCO1 [Example 128]
71 | < 10 µM | C[C@H]1COCCN1c1nc2cc(N3CCc4[nH]c5cc(F)ccc5c4C3)ccc2o1 [Example 129]
72 | < 10 µM | C[C@@H]1CN(c2nc3cc(N4CCc5[nH]c6cc(F)ccc6c5C4)ccc3o2)CCO1 [Example 130]
73 | < 10 µM | COc1cc(N2CCc3[nH]c4cc(F)ccc4c3C2)ccn1 [Example 132]
74 | < 10 µM | COc1ccc2c3c([nH]c2c1)CCN(c1ccc2oc(N4CCOCC4)nc2c1)C3 [Example 133]
75 | 10 to 25 µM | CCOc1ccc2[nH]c3c(c2c1)CN(c1ccc2oc(N4CCOCC4)nc2c1)CC3 [Example 136]
76 | < 10 µM | Cc1cccc2c3c([nH]c12)CCN(c1ccc2oc(N4CCOCC4)nc2c1)C3 [Example 137]
77 | < 10 µM | COc1cccc(N2CCc3[nH]c4cc(F)ccc4c3C2)n1 [Example 138]
78 | 10 to 25 µM | CC(C)Oc1cc(N2CCc3[nH]c4cc(F)ccc4c3C2)ccn1 [Example 139]
79 | < 10 µM | COc1ccnc(N2CCc3[nH]c4cc(F)ccc4c3C2)c1 [Example 140]

Row | Structure (SMILES) | EC50
80 | Fc1ccc2[nH]c3c(c2c1)CN(c1cnc(N2C4CCC2COC4)cn1)CC3 [Example 105] | < 10 µM
